In patent US12458052B2, “Human milk oligosaccharides for use in enhancing executive function” (Glycom A/S, priority 2019, dated 2025):

System: genes related to myelination; myelination and myelin sheath pathway
Assay: gene expression and KEGG pathway analysis of brain samples, cross-fostering to St6Gal1 KO dams
Format: in vivo, mice
Conditions: presence in maternal milk, especially during early life
Description: Adult wild-type (WT) B6.129 and heterozygous (HZ) B6.129-St6gal1^tm2Jxm breeding pairs (four males and four females and three males and four females, respectively) were purchased from a commercial breeder (The Jackson Laboratory). Upon arrival, same-sex mice were housed in same-sex groups of 2-3 in type-1 polycarbonate cages (33.0×13.0×14.0 cm) equipped with sawdust bedding, an enrichment bag (Mucedola, Settimo Milanese, Italy), metal top and ad libitum water and food pellets (Mucedola, Settimo Milanese, Italy). Mice were maintained on a reversed 12-h-light-dark cycle (light on at 7:00 PM) in an air-conditioned room (temperature 21±1° C. and relative humidity 60±10%). Two weeks after arrival, breeding triads (one male, two females) were formed. After two weeks of mating, male mice were removed and females were housed individually in standard type-1 cages. Females were checked daily for delivery and the day in which they gave birth was designated as postnatal day (PND) 0. […]
Quantification is performed using Quant It Ribogreen assay (Life Technologies) QC assessment is performed using Standard sensitivity RNA kit on Fragment Analyzer 96 (Agilent). […]
Library generation starts with oligodT priming containing the Illumina-specific Read 2 linker sequence. […] The random primer contains the Illumina-specific Read 1 linker sequence. […]

**Q.** How did the “optimal myelination of the prefrontal cortex” value turn out when `CC(=O)N[C@H]1[C@H]([C@H](O)[C@H](O)CO)O[C@@](OC[C@H]2O[C@@H](O[C@H]3[C@H](O)[C@@H](O)[C@H](O)O[C@@H]3CO)[C@H](O)[C@@H](O)[C@H]2O)(C(=O)O)C[C@@H]1O` [6′-SL, 6′-sialyllactose] was run?
**A.** Its value is “necessary”.
